According to ChEMBL document CHEMBL1201862, “PubChem BioAssay data set” (2004):
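Tested at 5 concentrations; 48 h exposure; 96-well plates; endpoints linearly interpolated, else capped at highest concentration. GI50 is the concentration that inhibits growth by half.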 Active and inactive are the calls of the source. Cut-off read from the data, not from the text of the source: active = GI50 up to about 1.1 µM and inactive = higher.

Assays:
Assay in all cases: NCI-60 cell line screen, 48 h
U-251 = test system: U-251
OVCAR-8 = test system: OVCAR-8
UACC-62 = test system: UACC-62
SR = test system: SR
SW-620 = test system: SW-620
HCT-116 = test system: HCT-116
SK-MEL-2 = test system: SK-MEL-2
SK-MEL-5 = test system: SK-MEL-5
UO-31 = test system: UO-31
LOX IMVI = test system: LOX IMVI
A549 = test system: A549
RPMI-8226 = test system: RPMI-8226
T47D = test system: T47D
SK-OV-3 = test system: SK-OV-3
ACHN = test system: ACHN
TK-10 = test system: TK-10
COLO 205 = test system: COLO 205
IGROV-1 = test system: IGROV-1
Hs-578T = test system: Hs-578T
HOP-62 = test system: HOP-62

Structure (SMILES)	GI50 (U-251)	GI50 (OVCAR-8)	GI50 (UACC-62)	GI50 (SR)	GI50 (SW-620)	GI50 (HCT-116)	GI50 (SK-MEL-2)	GI50 (SK-MEL-5)	GI50 (UO-31)	GI50 (LOX IMVI)	GI50 (A549)	GI50 (RPMI-8226)	GI50 (T47D)	GI50 (SK-OV-3)	GI50 (ACHN)	GI50 (TK-10)	GI50 (COLO 205)	GI50 (IGROV-1)	GI50 (Hs-578T)	GI50 (HOP-62)
COc1cc2c(/C=C3/C(=O)Nc4ccc(O)cc43)c(Cl)n(Cc3ccccc3)c2cc1C	0.69 µM (active)	1.43 µM (inactive)	2.37 µM (inactive)	0.356 µM (active)	0.433 µM (active)	0.421 µM (active)	3.73 µM (inactive)	0.266 µM (active)	3.76 µM (inactive)	0.558 µM (active)	0.975 µM (active)	0.687 µM (active)	4.93 µM (inactive)	0.817 µM (active)	0.628 µM (active)	3.36 µM (inactive)	1.04 µM (active)	0.682 µM (active)	0.354 µM (active)	
COC(=O)c1c(O)ccc2c1c1c(n2Cc2ccccc2OC)C(=O)c2ccccc2C1=O	11 µM (inactive)	4.42 µM (inactive)		0.0483 µM (active)	14.2 µM (inactive)	5.46 µM (inactive)	13.9 µM (inactive)	13.1 µM (inactive)	5.42 µM (inactive)	10.6 µM (inactive)	5.64 µM (inactive)	1.86 µM (inactive)	2.36 µM (inactive)	16.3 µM (inactive)	7.53 µM (inactive)	23.2 µM (inactive)	1.83 µM (inactive)	12.6 µM (inactive)	18 µM (inactive)	13.6 µM (inactive)
Cc1cc2c(c(C(=O)NCC(=O)O)c1)Oc1c(cc(C)cc1C(=O)NCC(=O)O)S2	> 100 µM (inactive)	> 100 µM (inactive)	> 100 µM (inactive)	> 100 µM (inactive)	> 100 µM (inactive)	> 100 µM (inactive)	> 100 µM (inactive)			> 100 µM (inactive)	> 100 µM (inactive)	> 100 µM (inactive)	> 100 µM (inactive)	> 100 µM (inactive)	> 100 µM (inactive)	> 100 µM (inactive)	> 100 µM (inactive)	> 100 µM (inactive)	> 100 µM (inactive)	> 100 µM (inactive)
Cn1c(-c2ccc(/N=N/Nc3ccc(-c4n[nH]c(=S)n4C)cc3)cc2)n[nH]c1=S	13.2 µM (inactive)	4.6 µM (inactive)		4.81 µM (inactive)	> 100 µM (inactive)	25.7 µM (inactive)	5.7 µM (inactive)	3.01 µM (inactive)	2.85 µM (inactive)	16.4 µM (inactive)	> 100 µM (inactive)	2.79 µM (inactive)	1.94 µM (inactive)	20.2 µM (inactive)	1.99 µM (inactive)	28.7 µM (inactive)	56 µM (inactive)	10.2 µM (inactive)	32.1 µM (inactive)	20.3 µM (inactive)
N#Cc1nc(CN2C(=O)c3ccccc3C2=O)oc1N	> 100 µM (inactive)	> 100 µM (inactive)		> 100 µM (inactive)	> 100 µM (inactive)	> 100 µM (inactive)	> 100 µM (inactive)	> 100 µM (inactive)			> 100 µM (inactive)	> 100 µM (inactive)	> 100 µM (inactive)	> 100 µM (inactive)	> 100 µM (inactive)	> 100 µM (inactive)	> 100 µM (inactive)	> 100 µM (inactive)	> 100 µM (inactive)	> 100 µM (inactive)
Cc1cc(N(CCC#N)CCC#N)ccc1C(/N=N/c1ccc(C(=O)O)cc1)=N\NC(=O)c1ccccc1	34.8 µM (inactive)	28.1 µM (inactive)	39.8 µM (inactive)	6.08 µM (inactive)		35 µM (inactive)	> 100 µM (inactive)	19.5 µM (inactive)	42.7 µM (inactive)		25.8 µM (inactive)	> 100 µM (inactive)	43.8 µM (inactive)	49.2 µM (inactive)	59.7 µM (inactive)	> 100 µM (inactive)	28.5 µM (inactive)	50.2 µM (inactive)	14.4 µM (inactive)	32.4 µM (inactive)
NS(=O)(=O)c1nnc(NS(=O)(=O)c2ccccc2C(=O)O)s1	> 100 µM (inactive)	> 100 µM (inactive)	> 100 µM (inactive)	> 100 µM (inactive)	> 100 µM (inactive)	> 100 µM (inactive)	> 100 µM (inactive)	> 100 µM (inactive)	> 100 µM (inactive)	> 100 µM (inactive)	> 100 µM (inactive)	> 100 µM (inactive)	> 100 µM (inactive)	> 100 µM (inactive)	> 100 µM (inactive)	> 100 µM (inactive)	> 100 µM (inactive)		> 100 µM (inactive)	> 100 µM (inactive)
O=C1Cc2c([nH]c3ccc(C(=O)O)cc23)-c2ccccc2N1	> 100 µM (inactive)	> 100 µM (inactive)	> 100 µM (inactive)	> 100 µM (inactive)	> 100 µM (inactive)	> 100 µM (inactive)	> 100 µM (inactive)		> 100 µM (inactive)	> 100 µM (inactive)	> 100 µM (inactive)	> 100 µM (inactive)	> 100 µM (inactive)	> 100 µM (inactive)	> 100 µM (inactive)	> 100 µM (inactive)	> 100 µM (inactive)	> 100 µM (inactive)	> 100 µM (inactive)	> 100 µM (inactive)
